Reference: patent US11827628B2, “Compositions and methods for inhibition of the JAK pathway” (Rigel Pharmaceuticals, Inc., priority 2005, dated 2023)

Tested on: up-regulation of ICAM-1 (CD54) by IFNγ in A549 lung epithelial cells
Assay: A549 Epithelial Line Stimulated with IFNγ (ICAM-1 surface expression, FACS)
Format: cell-based, human
Details: A549 epithelial line stimulated with IFNγ; ICAM-1 expression by FACS; read-out: IC50, Example 43
Summary of the method: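 A549 cells pre-incubated 1 h with compound (30 μM to 14 nM, 5% FBS, 0.3% DMSO), then stimulated with IFNγ (75 ng/mL) for 24 h. Surface ICAM-1 stained with APC anti-CD54 and read by flow cytometry; geometric mean of live-gated events plotted against concentration for EC50.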

| Compound | IC50 |
| --- | --- |
| Cc1cc(COc2ccc(Nc3nc(Nc4ccc(C)c(S(N)(=O)=O)c4)ncc3F)cc2C)no1 [Compound I-234, N2-(3-Aminosulfonyl-4-methylphenyl)-5-fluoro-N4-[3-methyl-4-(5-methylisoxazol-3-yl)methyleneoxyphenyl]-2,4-pyrimidinediamine] | 8.16 µM |
| CNS(=O)(=O)c1cc(Nc2ncc(F)c(Nc3ccc(OCc4nc(C)no4)cc3)n2)ccc1C [Compound I-260, 5-Fluoro-N2-[3-N-(methyl)aminosulfonyl-4-methylphenyl)-N4-[4-(3-methyl-1,2,4-oxadiazol-5-yl)methyleneoxyphenyl]-2,4-pyrimidinediamine] | 8.44 µM |
| Cc1noc(COc2cccc(Nc3nc(Nc4ccc(C)c(S(N)(=O)=O)c4)ncc3F)c2)n1 [Compound I-254, N2-(3-Aminosulfonyl-4-methylphenyl)-5-fluoro-N4-[3-(3-methyl-1,2,4-oxadiazol-5-yl)methyleneoxyphenyl]-2,4-pyrimidinediamine] | 8.96 µM |
| N#CCCc1ccc(Nc2nc(Nc3cccc(S(N)(=O)=O)c3)ncc2F)cc1 [III-14, N2-(3-aminosulfonylphenyl)-N4-[4-(cyanoethylene)phenyl]-5-fluoro-2,4-pyrimidinediamine] | 3.6 µM |
| N#CCCc1ccc(Nc2nc(Nc3ccc(F)c(S(N)(=O)=O)c3)ncc2F)cc1 [III-16, N2-(3-Aminosulfonyl-4-fluorophenyl)-N4-[4-(cyanoethylene)phenyl]-5-fluoro-2,4-pyrimidinediamine] | 7.24 µM |
| Cc1cc(COc2ccc(Nc3nc(Nc4ccc(C)c(S(N)(=O)=O)c4)ncc3F)cc2)no1 [Compound I-219, N2-(3-Aminosulfonyl-4-methylphenyl)-5-fluoro-N4-[4-(5-methylisoxazol-3-yl)methyleneoxyphenyl]-2,4-pyrimidinediamine] | 7.16 µM |
| Cc1cc(COc2ccc(Nc3nc(Nc4cc(Cl)c(C)c(S(N)(=O)=O)c4)ncc3F)cc2F)no1 [Compound I-223, N2-(3-Aminosulfonyl-5-chloro-4-methylphenyl)-5-fluoro-N4-[3-fluoro-4-(5-methylisoxazol-3-yl)methyleneoxyphenyl]-2,4-pyrimidinediamine] | 9.09 µM |
| Cc1noc(COc2ccc(Nc3nc(Nc4cccc(S(=O)(=O)NCc5oc(=O)oc5C)c4)ncc3F)cc2)n1 [Compound I-257, N2-{3-[(N-5-Methyl-1,3-dioxolene-2-one-4-yl)methylene]aminosulfonylphenyl}-5-fluoro-N4-[4-(3-methyl-1,2,4-oxadiazol-5-yl)methyleneoxyphenyl]-2,4-pyrimidinediamine] | 3.08 µM |
| Cc1noc(COc2ccc(Nc3nc(Nc4ccc(C)c(S(N)(=O)=O)c4)ncc3F)cc2)n1 [Compound I-259, N2-(3-Aminosulfonyl-4-methylphenyl)-5-fluoro-N4-[4-(3-methyl-1,2,4-oxadiazol-5-yl)methyleneoxyphenyl]-2,4-pyrimidinediamine] | 7.51 µM |
| COc1cc(Nc2ncc(F)c(Nc3cc(C)c(OCC#N)c(C)c3)n2)ccc1S(N)(=O)=O [Compound I-32, N2-(4-Aminosulfonyl-3-methoxy)phenyl-N4-(4-cyanomethoxy-3,5-dimethyl)phenyl-5-fluoro-2,4-pyrimidinediamine] | 5.5 µM |
| CCN(CC)CCNS(=O)(=O)c1ccc(Nc2ncc(F)c(Nc3ccc(OCc4cc(C)on4)c(C)c3)n2)cc1 [Compound I-245, N2-[4-(2-N,N-Diethylaminoethyl)aminosulfonylphenyl)-5-fluoro-N4-[3-methyl-4-(5-methylisoxazol-3-yl)methyleneoxyphenyl]-2,4-pyrimidinediamine] | 16.7 µM |
| Cc1ccc(Nc2ncc(F)c(Nc3ccc(OC4CCCN(C)C4)c(Cl)c3)n2)cc1S(N)(=O)=O (racemic) [II-3, Racemic N2-(3-aminosulfonyl-4-methylphenyl)-N4-{3-chloro-4-[(1-methylpiperidin-3-yl)oxy]phenyl}-5-fluoro-2,4-pyrimidinediamine] | 11.9 µM |
| Cc1ccc(Nc2ncc(C)c(Nc3ccc(CCC#N)cc3)n2)cc1S(N)(=O)=O [III-11] | 2.24 µM |
| N#CCc1ccc(Nc2nc(Nc3ccc(Cl)c(S(N)(=O)=O)c3)ncc2F)cc1 [III-8, N2-(3-Aminosulfonyl-4-chloro)phenyl-N4-(4-cyanomethyl)phenyl-5-fluoro-2,4-pyrimidinediamine] | 14.5 µM |

Further compounds by falling IC50, results first:

| IC50 | Compound |
| --- | --- |
| 74.2 µM | Cc1noc(COc2cccc(Nc3nc(Nc4cccc(S(N)(=O)=O)c4)ncc3F)c2)n1 [Compound I-252, N2-(3-Aminosulfonylphenyl)-5-fluoro-N4-[3-(3-methyl-1,2,4-oxadiazol-5-yl)methyleneoxyphenyl]-2,4-pyrimidinediamine] |
| 39.3 µM | CNS(=O)(=O)c1cc(Nc2ncc(F)c(Nc3cccc(OCc4nc(C)no4)c3)n2)ccc1C [Compound I-255, 5-Fluoro-N2-[3-(N-methylaminosulfony)-4-methylphenyl]-N4-[3-(3-methyl-1,2,4-oxadiazol-5-yl)methyleneoxyphenyl]-2,4-pyrimidinediamine] |
| 36.6 µM | Cc1cc(COc2ccc(Nc3nc(Nc4cc(C)c(F)c(S(N)(=O)=O)c4)ncc3F)cc2)no1 [Compound I-217, N2-(3-Aminosulfonyl-4-fluoro-5-methylphenyl)-5-fluoro-N4-[4-(5-methylisoxazol-3-yl)methyleneoxyphenyl]-2,4-pyrimidinediamine] |
| 34.9 µM | N2-[3-Aminosulfonyl-4-(4-methylpiperazin-1-yl)phenyl]-5-fluoro-N4-[2-fluoro-4-(5-methylisoxazol-3-yl)methyleneoxyphenyl]-2,4-pyrimidinediamine [Compound I-251] |
| 25.3 µM | Cc1cc(Nc2nc(Nc3ccc(S(N)(=O)=O)cc3)ncc2F)cc(C)c1OCC#N [Compound I-25, N2-(4-Aminosulfonyl)phenyl-N4-(4-cyanomethoxy-3,5-dimethyl)phenyl-5-fluoro-2,4-pyrimidinediamine] |
| 24.9 µM | CN1CCN(S(=O)(=O)c2cccc(Nc3ncc(F)c(Nc4ccc(OCC#N)cc4)n3)c2)CC1 [Compound I-19, N4-(4-Cyanomethoxy)phenyl-5-fluoro-N2-[3-(4-methylpiperazin-1-yl)sulfonyl]phenyl-2,4-pyrimidinediamine] |
| 23.6 µM | COc1cc(Nc2ncc(F)c(Nc3ccc(CC#N)cc3)n2)ccc1S(N)(=O)=O [III-9, N2-(4-Aminosulfonyl-3-methoxy)phenyl-N4-(4-cyanomethyl)phenyl-5-fluoro-2,4-pyrimidinediamine] |
| 22.7 µM | N#CCOc1ccc(Nc2nc(Nc3ccc(Cl)c(S(N)(=O)=O)c3)ncc2F)cc1 [Compound I-21, N2-(3-Aminosulfonyl-4-chlorophenyl)-N4-(4-cyanomethoxy)phenyl-5-fluoro-2,4-pyrimidinediamine] |
| 14.4 µM | Cc1cc(Nc2nc(Nc3ccc(S(N)(=O)=O)cc3)ncc2F)ccc1OCC#N [Compound I-22, N2-(4-Aminosulfonyl)phenyl-N4-(4-cyanomethoxy-3-methyl)phenyl-5-fluoro-2,4-pyrimidinediamine] |
| 11.3 µM | Cc1cc(COc2ccc(Nc3nc(Nc4cc(C)c(F)c(S(N)(=O)=O)c4)ncc3F)cc2F)no1 [Compound I-224, N2-(3-Aminosulfonyl-4-fluoro-5-methylphenyl)-5-fluoro-N4-[3-fluoro-4-(5-methylisoxazol-3-yl)methyleneoxyphenyl]-2,4-pyrimidinediamine] |
| 11 µM | Cc1nnc(COc2ccc(Nc3nc(Nc4ccc(F)c(S(N)(=O)=O)c4)ncc3F)cc2)o1 [Compound I-278, N2-(3-Aminosulfonyl-4-fluorophenyl)-5-fluoro-N4-[4-(5-methyl-1,3,4-oxadiazol-2-yl)methyleneoxyphenyl]-2,4-pyrimidinediamine] |
| 8.88 µM | CCN(CC)CCNS(=O)(=O)c1ccc(Nc2ncc(F)c(Nc3ccc(OCc4cc(C)on4)cc3)n2)cc1 [Compound I-246, N2-[4-(2-N,N-Diethylaminoethyl)aminosulfonylphenyl)-5-fluoro-N4-[4-(5-methylisoxazol-3-yl)methyleneoxyphenyl]-2,4-pyrimidinediamine] |
| 8.37 µM | N#CCc1ccc(Nc2nc(Nc3cccc(S(N)(=O)=O)c3)ncc2F)cc1 [III-4, N2-(3-Aminosulfonyl)phenyl-N4-(4-cyanomethyl)phenyl-5-fluoro-2,4-pyrimidinediamine] |
| 6.91 µM | Cc1nnc(COc2ccc(Nc3nc(Nc4cccc(S(N)(=O)=O)c4)ncc3F)cc2)o1 [Compound I-277, N2-(3-aminosulfonylphenyl)-5-fluoro-N4-[4-(5-methyl-1,3,4-oxadiazol-2-yl)methyleneoxyphenyl]-2,4-pyrimidinediamine] |
| 6.54 µM | Cc1ccc(Nc2ncc(F)c(Nc3ccc(OCC#N)cc3)n2)cc1S(N)(=O)=O [Compound I-20, N2-(3-Aminosulfonyl-4-methyl)phenyl-N4-(4-cyanomethoxy)phenyl-5-fluoro-2,4-pyrimidinediamine] |
| 4.66 µM | Cc1ccc(Nc2ncc(F)c(Nc3ccc(CCC#N)cc3)n2)cc1S(N)(=O)=O [III-15, N2-(3-Aminosulfonyl-4-methylphenyl)-N4-[4-(cyanoethylene)phenyl]-5-fluoro-2,4-pyrimidinediamine] |
| 4.23 µM | Cc1cc(Nc2nc(Nc3cccc(S(N)(=O)=O)c3)ncc2F)cc(C)c1OCC#N [Compound I-26, N2-(3-Aminosulfonyl)phenyl-N4-(4-cyanomethoxy-3,5-dimethyl)phenyl-5-fluoro-2,4-pyrimidinediamine] |
| 3.68 µM | 5-Fluoro-N4-[4-(3-methyl-1,2,4-oxadiazol-3-yl)methyleneoxyphenyl]-N2-[(3-N-propanamido)sulfonylphenyl)]-2,4-pyrimidinediamine [Compound I-262] |
| 3.48 µM | Cc1ccc(Nc2ncc(F)c(Nc3cc(C)c(OCC#N)c(C)c3)n2)cc1S(N)(=O)=O [Compound I-27, N2-(3-Aminosulfonyl-4-methyl)phenyl-N4-(4-cyanomethoxy-3,5-dimethyl)phenyl-5-fluoro-2,4-pyrimidinediamine] |
| 2.35 µM | N#CCOc1ccc(Nc2nc(Nc3cccc(S(N)(=O)=O)c3)ncc2F)cc1 [Compound I-17, N2-(3-Aminosulfonyl)phenyl-N4-(4-cyanomethoxy)phenyl-5-fluoro-2,4-pyrimidinediamine] |
